Values joined by “and” are separate entries in the source; they are usually repeats but may differ in a detail not shown here. Identical values can stand only once. Like-named read-outs stand apart in the source and are kept apart here. Marks after values point to notes of the source that are not given here.

The text below walks through data of publication PMC9099122 (Clinical and Translational Science, 2022).

The format of series [1] is in vivo, human. The following applies: for M:P AUCinf ratio, relative bioavailability point estimate / M:P AUCt ratio, relative bioavailability point estimate: Day 11 vs. day 1; for Cmax, geometric mean (mean, %CV): N = 20; for change in terminal elimination half-life / change in Tmax: day 11 compared to day 1, all subjects.
Series [2] has as its system P‐gp. The following applies: following elagolix 200 mg b.i.d. regimen; cited from earlier work.
Another series concerns CYP3A4. The following applies: cited from earlier work.
A short description of series [3]: Elagolix plasma concentrations on day 11 of this study. To be noted: female, human, oral, 300 mg. The format is in vivo.
In series [4] the test system is CYP2C19. Description: Clinical classification of elagolix as CYP2C19 inhibitor from omeprazole DDI. It is filed as in vivo, human. The following applies: elagolix 300 mg b.i.d., FDA criteria for clinical CYP enzyme inhibitors.
Series [5] has as its system P‐gp. To be noted: in vitro; cited from earlier work.
The next series has as its system CYP3A. To be noted: in vitro; cited from earlier work.
Series [6] deals with CYP2C19. The following applies: in vitro; cited from earlier work.
For series [7] the following is noted: cited from earlier work.
The conditions of series [8]: rabbits, coadministration with verapamil; cited from earlier work.
For series [9] the following is noted: no reference given; cited from earlier work.
The conditions of series [10]: low aqueous solubility and high permeability; cited from earlier work.
Setting [11] is: Day 1, omeprazole 40 mg (reference).
Setting [12] is: Day 11, elagolix 300 mg b.i.d. + omeprazole 40 mg (test).
Where [13] appears, read: Study day 1, omeprazole 40 mg alone.
[14] abbreviates: Study day 11, omeprazole 40 mg + elagolix 300 mg b.i.d.
Where [15] appears, read: day 11 (elagolix 300 mg b.i.d.) vs day 1, all subjects.

With `COc1ccc2nc([S+]([O-])Cc3ncc(CO)c(OC)c3C)[nH]c2c1` (stereo not shown) [5‐hydroxyomeprazole], in [1] (setting [11]), the “M:P AUCinf ratio, central value” came to 0.458 and the “M:P AUCt ratio, central value” is 0.471. Besides, in series [1] (setting [12]), the “M:P AUCinf ratio, central value” is listed as 0.198 and the “M:P AUCt ratio, central value” is on record as 0.194. In [1], the “M:P AUCinf ratio, relative bioavailability point estimate” value is listed as 0.432; the “M:P AUCt ratio, relative bioavailability point estimate” value is given as 0.412; the “change in terminal elimination half-life” value is listed as “unchanged”. Besides, in [1] (setting [13]), the “AUCinf, geometric mean (mean, %CV)” value was 883 (932, 33) ng•h/ml; the “AUCt, geometric mean (mean, %CV)” value is recorded as 857 (911, 35) ng•h/ml; the “RAUCinf, metabolite-to-omeprazole AUCinf ratio, median (minimum–maximum)” value was 0.61 (0.048–2.3) ^c; the “RAUCt, metabolite-to-omeprazole AUCt ratio, median (minimum–maximum)” value is reported as 0.65 (0.044–2.1). For the same compound, in series [1] (setting [13]), the “Tmax, median (minimum–maximum)” value is reported as 2.0 (2.0–10) h; the “t1/2, harmonic mean (pseudo-standard deviation)” value is given as 1.88 (0.794) h; the “Cmax, geometric mean (mean, %CV)” value was 195 (238, 61) ng/ml. Moreover, in series [1] (setting [14]), the “AUCinf, geometric mean (mean, %CV)” value was 664 (679, 21) ng•h/ml; the “AUCt, geometric mean (mean, %CV)” value is listed as 643 (659, 22) ng•h/ml; the “RAUCinf, metabolite-to-omeprazole AUCinf ratio, median (minimum–maximum)” value is on record as 0.20 (0.071–0.90); the “RAUCt, metabolite-to-omeprazole AUCt ratio, median (minimum–maximum)” value was 0.20 (0.071–0.84). Further, in series [1] (setting [14]), the “Tmax, median (minimum–maximum)” value is reported as 3.0 (1.0–8.0) h; the “t1/2, harmonic mean (pseudo-standard deviation)” value was 1.97 (0.901) h; the “Cmax, geometric mean (mean, %CV)” value is recorded as 134 (142, 34) ng/ml. Besides, the “decrease in AUCinf” value in series [1] (day 11 vs day 1, EM subjects) is reported as 23%. Besides, the “decrease in AUCinf” value in series [1] (day 11 vs day 1, IM subjects) is reported as 30%. In series [1] (day 11 vs day 1, PM subjects), the “decrease in AUCinf (exposure)” value is reported as 20%. In addition, in [1] (day 11 vs day 1, all subjects), the “decrease in AUCinf (exposure)” value came out at 25%, the “decrease in Cmax” value is “approximately 30%”, the “decrease in metabolite-to-parent (M:P) AUC ratio” value is recorded as ~ 60% and the “increase in Tmax” value is on record as 1 h.

On to `C[C@H]1O[C@@H](O[C@H]2[C@@H](O)C[C@H](O[C@H]3[C@@H](O)C[C@H](O[C@H]4CC[C@@]5(C)[C@H](CC[C@@H]6[C@@H]5C[C@@H](O)[C@]5(C)[C@@H](C7=CC(=O)OC7)CC[C@]65O)C4)O[C@@H]3C)O[C@@H]2C)C[C@H](O)[C@@H]1O` [digoxin], for which, in the series with P‐gp [2], the “increase in AUC” value is on record as 26% and the “increase in Cmax” value is given as 71%.

`COc1cccc(-c2c(C)n(Cc3c(F)cccc3C(F)(F)F)c(=O)n(C[C@H](NCCCC(=O)O)c3ccccc3)c2=O)c1F` [elagolix]: in the series with CYP3A4 (from midazolam DDI), the CYP3A inducer classification result is “weak to moderate inducer”. In series [3], this compound had a Cmax of 1.41 µg/mL. In addition, the “clinical CYP2C19 inhibitor classification” value with CYP2C19 [4] is “weak inhibitor”. The IC50 with P‐gp [5] is 54 µM. In addition, in the series on CYP3A, the maximum induction is listed as 20 fold. Further, in the series with CYP2C19 [6], the Ki is 34 µM and the kinact is 0.029 min⁻¹.

As to `Cc1ncc2n1-c1ccc(Cl)cc1C(c1ccccc1F)=NC2` [midazolam], the “reduction in AUC” value with CYP3A4 (with elagolix 150 mg q.d.) was 35%; in the series on CYP3A4 (with elagolix 300 mg b.i.d.) it was 54%.

`COc1ccc2nc(S(=O)(=O)Cc3ncc(C)c(OC)c3C)[nH]c2c1` [omeprazole sulfone]: in series [1] (setting [11]), the “M:P AUCinf ratio, central value” came out at 0.825 and the “M:P AUCt ratio, central value” came out at 0.679. For the same compound, in series [1] (setting [12]), the “M:P AUCinf ratio, central value” is on record as 1.028 and the “M:P AUCt ratio, central value” came to 1.017. In addition, in series [1], the “M:P AUCinf ratio, relative bioavailability point estimate” value is 1.246; the “M:P AUCt ratio, relative bioavailability point estimate” value is recorded as 1.497; the “change in Tmax” value is reported as “relatively unchanged”; the “change in terminal elimination half-life” value was “relatively unchanged”. For the same compound, the “change in Cmax after elagolix dosing” value in series [1] (PM subjects) was “unchanged”. Further, in [1] (setting [13]), the “RAUCinf, metabolite-to-omeprazole AUCinf ratio, median (minimum–maximum)” value is 0.85 (0.52–1.1) ^e and the “RAUCt, metabolite-to-omeprazole AUCt ratio, median (minimum–maximum)” value is given as 0.76 (0.13–1.1). Further, in [1] (setting [14]), the “RAUCinf, metabolite-to-omeprazole AUCinf ratio, median (minimum–maximum)” value was 0.99 (0.71–1.5) and the “RAUCt, metabolite-to-omeprazole AUCt ratio, median (minimum–maximum)” value was 0.97 (0.67–1.5). In series [1] (setting [15]), the “increase in AUCinf (exposure)” value came out at 2.5 fold and the “increase in Cmax” value is recorded as 2.7 fold. The increase in exposures in series [1] (day 11 vs day 1, EM and IM subjects) was ~ 3 fold. The “increase in AUCinf” value in [1] (day 11 vs day 1, EM subjects) worked out at 2.7 fold. Also, in series [1] (day 11 vs day 1, IM subjects), the “increase in AUCinf” value worked out at 3 fold. The “increase in metabolite-to-parent (M:P) AUC ratio” value in series [1] (day 11 vs day 1, all subjects) was 25%. In addition, the “AUCinf on day 11 lower compared to day 1” value in series [1] (one PM subject with AUCinf on both days) came out at 40%.

As for `COc1ccc2[nH]c([S+]([O-])Cc3ncc(C)c(OC)c3C)nc2c1` (stereo not shown) [omeprazole, reference compound], the “model-estimated absorption rate constant, higher vs homozygous wild-type” value in [7] (subjects heterozygous for ABCB1 mutant alleles) was 2 fold; in [7] (subjects homozygous for ABCB1 mutant alleles) it was 7 fold. The “increase in AUC” value in series [8] was “more than 2 fold”. The “increase in Cmax” value in series [8] is on record as “more than 2 fold”; in [1] (setting [15]) it was 1.9 fold; in [1] (day 11 vs day 1, PM subjects), 23%. In series [9], the “estimated fraction absorbed and escaping intestinal first pass (fa*fg)” value is “approximately 0.80”. The “Biopharmaceutics Classification System (BCS) class” value in series [10] is recorded as “Class 2”. Moreover, the “increase in AUCinf (exposure)” value in [1] (setting [15]) was 1.8 fold. In series [1], the “change in Tmax” value is given as “unchanged”. The “change in terminal elimination half-life” value in series [1] is given as “unchanged”. Further, the “increase in AUCinf” value in series [1] (day 11 vs day 1, EM subjects) turned out to be 2 fold; in series [1] (day 11 vs day 1, IM subjects), 2.6 fold. Besides, the “decrease in AUCinf (exposure)” value in series [1] (day 11 vs day 1, PM subjects) amounted to 40%. Further, the time of peak concentration (Tmax) in series [1] (human, plasma, oral, 40 mg, Tmax, individual subjects, three PM subjects, day 1) was determined as 8 h. The “Tmax, individual subjects” value in [1] (three PM subjects, day 1) is 10 h and 2 h; in series [1] (three PM subjects, day 11), 2 h (2×) and 1 h.

The term Cmax denotes the peak of the concentration-time curve. By IC50 is commonly meant the midpoint of a concentration-inhibition curve. Usually Ki stands for a dissociation constant, usually derived from enzyme kinetics or from competition with a known ligand. For orientation: kinact means the maximal first-order rate at which the target is inactivated. The term Tmax denotes the time from dosing to the highest level.
